Among the data in US12102633B2, “Spirolactone compounds” (Quixgen, Inc., priority 2017, dated 2024) are IC50 and fraction unbound values, retold here.

The subject of one data set is Human sebocytes. In words: Lipogenesis of human sebocytes. The note with it: 96 hours, nile red, read-out: LG-Sebo IC50. The class given is cell-based. The procedure: Human sebocytes (Celprogen) were grown in collagen-coated 96-well culture microplate (White/Clear bottom, Coming BioCoat) with growth media till 100% confluency. Culture media was changed to growth media plus 100 μM arachidonic acid (Sigma) and 10 μM rosiglitazone (Tocris) with compounds prepared in DMSO (1:1000 dilution in growth media). Cells were treated with compounds for 96 hours with media containing compounds changed after 48 hours. Upon completion of treatment, cells were washed with 200 μL Phosphate Buffered Saline (PBS) and then fixed by adding 100 μL 4% formaldehyde (Sigma) and incubated at room temperature for 1 hour. Cells were then washed 3 times with PBS. Microplate was stained with 100 μL nile red solution prepared in PBS (2 mg/mL, 1:400 dilution) by incubating at 37° C. for 1 hour and then washed 3 times with PBS. The fluorescence was read at Ex 492 nm and Em 595 nm (TECAN SpectrofluorPlus). Effect of compounds on lipogenesis in sebocytes was calculated by % of DMSO vehicle control.

Data set [1] in a line: Plasma protein binding (human). The following applies: % free, read-out: PPB (h/m) % free, human. Format: in vitro ADME. The procedure:
(§1) The data in Table 5 were obtained by following the methods disclosed in this application and/or those standard techniques known in the art. ACC enzyme activities were measured according to Biological Examples 1 and 2; Malonyl-CoA in sebocytes were measured according to Biological Example 4; Effect on lipogenesis of 3T3-L1 adipocytes were measured according to Biological Example 7; Effect on lipogenesis of sebocytes were measured according to Biological Example 5; Effect on proliferation of sebocytes were measured according to Biological Example 6; Mouse PK were measured according to Biological Example 10; and Plasma protein binding (human or mouse) were measured by standard technique.

Data set [2] can be described thus: Plasma protein binding (mouse). The following applies: % free, read-out: PPB (h/m) % free, mouse. The class given is in vitro ADME. The procedure:
as §1

In a further data set the test system is 3T3-L1 adipocytes. The experiment in a line: Lipogenesis of 3T3-L1 adipocytes. The following applies: Mus musculus, TG readout, read-out: LG-3T3 IC50. Format: cell-based. The protocol:
3T3-L1 fibroblast cells (Zen-Bio) were grown in 96-well culture microplate (Corning) with growth media to around 90-100% confluency. Culture media was changed to differentiation media (growth media supplemented with 3-Isobutyl-1-Methylxanthine 500 μM, Dexamethasone 1 μM, insulin 10 μg/mL, and rosiglitazone 2 μM) plus serially diluted compounds prepared in DMSO (1:1000 dilution). After incubation for 2 days, media was changed to maintenance media (growth media supplemented with insulin 10 μg/mL) plus serially diluted compounds prepared in DMSO (1:1000 dilution) for around 1 week with media changed every 2 days. Upon completion of the treatment, culture media are discarded and 200 μL 0.01% SDS was added to each well and shaken for 1 hour to lyse the cells. Cell lysates were then transferred to 400 μL Folch's solution (chloroform: methanol=2:1) and mixed well. After centrifuge at 2,000 rpm for 20 min, 200 μL of the lower organic phase was transferred to a plate with 10 μL sample buffer (chloroform:Triton-100=3:1). Samples were blown dried under nitrogen and 200 μL triglyceride (TG) quantification reagent (Thermo Fisher Scientific) was added, mixed, and incubated at 37° C. for 30 min. TG concentration was determined by reading absorbance at 535 nm (Dynex MRX^e Magellan Biosciences) and calculated from standard curve.

A further data set deals with T1, human ACC1 (Homo sapiens, UniProt Q13085).
T1 construct: purchased BPS Bioscience
The experiment in a line: Human ACC enzymatic activity assay (ACC1). The class given is biochemical. The following applies: purified human ACC1; read-out: EA-CoA hACC 1 IC50. An outline of the steps: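 Purified human ACC1 (0.4 μg/mL) or ACC2 (0.48 μg/mL) was preincubated with compound 10 min at 37° C in HEPES pH 7.5 with 4.0 mM ATP and 15 mM ^13C-NaHCO3. The reaction was started with 5 μM acetyl-CoA, run 1-2 h at 37° C and stopped with TCA. Labelled malonyl-CoA was quantified by LC-MS/MS.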

As a reminder, the IC50 is the point on the concentration scale where inhibition reaches its midpoint. As for `COc1cc(C(=O)N2CCC3(CC2)Cc2ccc(C(C)C)cc2C(=O)O3)nc2c(OC)cccc12` [Example 2, 1′-(4,8-dimethoxyquinoline-2-carbonyl)-7-isopropylspiro[isochroman-3,4′-piperidin]-1-one], the IC50 in the data set on Human sebocytes was found to be 0.025 µM; with 3T3-L1 adipocytes, 0.0008 µM. Also, the fraction unbound came to 0.0037 in data set [1] and 0.0028 in data set [2].
Consider `COc1cc(C(=O)N2CCC3(CC2)Cc2ccc(Nc4ccnn4C)cc2C(=O)O3)nc2c(OC)cccc12` [Example 6, 1′-(4,8-dimethoxyquinoline-2-carbonyl)-7-((1-methyl-1H-pyrazol-5-yl)amino)spiro[isochroman-3,4′-piperidin]-1-one], for which the fraction unbound in data set [1] turned out to be 0.0036; in data set [2] it was 0.0073. The IC50 in the data set on 3T3-L1 adipocytes worked out at 0.0219 µM; at human ACC1, 0.0362 µM.
